Assay results published in ChEMBL document CHEMBL2069192, “Synthesis of 3-(1-alkyl/aminoalkyl-3-vinyl-piperidin-4-yl)-1-(quinolin-4-yl)-propan-1-ones and their 2-methylene derivatives as potential spermicidal and microbicidal agents” (Bioorg Med Chem Lett, 2012).
Values after ≈ are worked out from the molar mass of the structure shown. Active and inactive are the calls of the source. The calls are words filed in the database; no cut-off is given here.

Key:
Trichomonas vaginalis [1] = assay: Antimicrobial activity against Trichomonas vaginalis ATCC 25258; assay type: functional
[2] = Antimicrobial activity against Lactobacillus jensenii
Trichomonas vaginalis [3] = assay: Antimicrobial activity against clinical isolate of Trichomonas vaginalis; assay type: functional
HeLa = assay: Cytotoxicity against human HeLa cells by MTT assay; assay type: cell-based
Spermatozoa = assay: Spermicidal activity against human spermatozoa at 10 mg/ml by modified sander-cramer assay; assay type: functional

Compound | MIC (Trichomonas vaginalis [1]) | EC50 [2] [µg/mL] | MIC (Trichomonas vaginalis [3]) | EC50 (HeLa) [µg/mL] | Activity (Spermatozoa)
C=C[C@H]1CN2CC[C@H]1C[C@@H]2[C@@H](O)c1ccnc2ccccc12 [CINCHONINE] | inactive | 428 (≈ 1450 µM) | inactive | 697 (≈ 2370 µM) | 
C=C[C@H]1CNCC[C@H]1CCC(=O)c1ccnc2ccccc12 [CINCHOTOXIN] | inactive | 449 (≈ 1530 µM) | inactive | > 1000 | 
C=C[C@H]1CN(CC)CC[C@H]1CCC(=O)c1ccnc2ccccc12 |  |  |  |  | inactive
C=C[C@H]1CN(CC)CC[C@H]1CC(=C)C(=O)c1ccnc2ccccc12.O=C(O)C(O)C(O)C(=O)O | 50 µg/mL | 685 | 12.5 µg/mL | 133 | 
CCCCCCCCCc1ccc(OCCOCCOCCOCCOCCOCCOCCOCCOCCO)cc1 [NONOXYNOL 9] | 37.5 µg/mL (≈ 60.8 µM) | 32.5 (≈ 52.7 µM) | 37.5 µg/mL (≈ 60.8 µM) | 33.2 (≈ 53.8 µM) | 
C=C[C@H]1CN(CCCCC)CC[C@H]1CCC(=O)c1ccnc2ccccc12.O=C(O)C(O)C(O)C(=O)O | 3.12 µg/mL | 76.3 | 1.5 µg/mL | 19.1 | 
C=C[C@H]1CN(CCCC)CC[C@H]1CCC(=O)c1ccnc2ccccc12 |  |  |  |  | inactive
C=C[C@H]1CN(CCCC)CC[C@H]1CC(=C)C(=O)c1ccnc2ccccc12.O=C(O)C(O)C(O)C(=O)O | 50 µg/mL | 321 | 3.12 µg/mL | 138 | 
C=C[C@H]1CN(CCCCCCCC)CC[C@H]1CCC(=O)c1ccnc2ccccc12 |  |  |  |  | inactive
Cc1ncc([N+](=O)[O-])n1CCO [METRONIDAZOLE] | 62.5 µg/mL (≈ 365 µM) | > 1000 | 2 µg/mL (≈ 11.7 µM) | > 1000 | inactive
C=C[C@H]1CN(CCCCC)CC[C@H]1CC(=C)C(=O)c1ccnc2ccccc12.O=C(O)C(O)C(O)C(=O)O | 25 µg/mL | 130 | 12.5 µg/mL | 104 | 
C=C[C@H]1CN(CC(C)C)CC[C@H]1CCC(=O)c1ccnc2ccccc12 |  |  |  |  | inactive
C=C[C@H]1CN(CCC)CC[C@H]1CCC(=O)c1ccnc2ccccc12.O=C(O)C(O)C(O)C(=O)O | 100 µg/mL | 526 | 25 µg/mL | 276 | 
C=C[C@H]1CN(CCCCCC)CC[C@H]1CCC(=O)c1ccnc2ccccc12 |  |  |  |  | inactive
